Experimental data published in PMC5283680 (ACS chemical biology, 2016).
In brackets after ≈: the same amount, converted by molar mass. Where two headings read alike, the source gives them in different places. Positions of bridges follow the written chain, without caps; N, C: chain ends. Non-standard residues stand in square brackets, D forms with d. Residues, ends and D or L forms follow the SMILES beside them. d(aIle) = CC[C@H](C)[C@@H](N)C(=O)O; dNMeF = CN[C@H](Cc1ccccc1)C(=O)O

Columns and labels:
gram-positive bacteria = conditions: MIC assays; cited from earlier work
[1] = system: Enterococcus durans ATCC 6056; assay type: cell-based
[2] = system: four gram-positive bacteria; experiment: MIC assays, summary over the four gram-positive bacteria; assay type: cell-based; conditions: for MIC against the gram-positive bacteria studied: four gram-positive bacteria of Table 1
[3] = system: Staphylococcus epidermidis ATCC 14990; assay type: cell-based
[4] = system: Escherichia coli ATCC 10798; assay type: cell-based
[5] = system: Streptococcus salivarius ATCC 13419; assay type: cell-based
[6] = system: Bacillus subtilis ATCC 6051; experiment: microbe, parasite or virus in culture; assay type: cell-based
E. coli = conditions: cited from earlier work
various Streptococcus = conditions: cited from earlier work
[7] = Enterococcus durans ATCC 6056, homologues as TFA salts
[8] = Staphylococcus epidermidis ATCC 14990, homologues as TFA salts
[9] = Streptococcus salivarius ATCC 13419, homologues as TFA salts
[10] = Bacillus subtilis ATCC 6051, homologues as TFA salts

Row | Compound | MIC ([1]; ATCC 6056) [mg/L] | MIC against the gram-positive bacteria studied [2] [mg/L] | MIC ([3]; ATCC 14990) [mg/L] | MIC [4] [mg/L] | MIC ([5]; ATCC 13419) [mg/L] | MIC ([6]; ATCC 6051) [mg/L] | MIC [1, 7] [mg/L] | MIC [3, 8] [mg/L] | MIC [5, 9] [mg/L] | MIC [6, 10] [mg/L] | further results
1 | CC[C@H](C)[C@H](NC(=O)[C@@H](Cc1ccccc1)NC)C(=O)N[C@@H](CO)C(=O)N[C@H](CCC(N)=O)C(=O)N[C@@H](C(=O)N[C@H](C(=O)N[C@@H](CO)C(=O)N[C@H]1C(=O)N[C@@H](C)C(=O)N[C@@H](CCCNC(=N)N)C(=O)N[C@@H]([C@@H](C)CC)C(=O)O[C@H]1C)[C@@H](C)CC)[C@@H](C)CC [Arg10-teixobactin] | 4 (≈ 3.21 µM) | 1 to 4 | 1 (≈ 0.804 µM) | >32 | 1 (≈ 0.804 µM) | 2 (≈ 1.61 µM) | – | – | – | – | activity relative to teixobactin (gram-positive bacteria): about an order of magnitude less active; activity relative to teixobactin ([2]; comparison of own MIC with original published values in related bacteria): about an order of magnitude less active
2 | CC[C@H](C)[C@H](NC(=O)[C@@H](Cc1ccccc1)NC)C(=O)N[C@@H](CO)C(=O)N[C@H](CCC(N)=O)C(=O)N[C@@H](C(=O)N[C@H](C(=O)N[C@@H](CO)C(=O)N[C@H]1C(=O)N[C@@H](C)C(=O)N[C@@H](CCCCN)C(=O)N[C@@H]([C@@H](C)CC)C(=O)O[C@H]1C)[C@@H](C)CC)[C@@H](C)CC [Lys10-teixobactin] (H-[dNMeF]IS[dQ][d(aIle)]IS[dT]AKI; ester 8-C (inferred); N-terminus assumed) | 1 (≈ 0.822 µM) | – | 0.25 (≈ 0.206 µM) | >32 | 0.5 (≈ 0.411 µM) | 0.5 (≈ 0.411 µM) | – | – | – | – | MIC values, times lower than Arg10-teixobactin ([2]; gram-positive bacteria, relative to Arg10-teixobactin): 2–4 times
3 | CN[C@H](CC(C)C)C(=O)N[C@H]1C(=O)N[C@@H](CC(N)=O)C(=O)N[C@H]2C(=O)N[C@H]3C(=O)N[C@H](C(=O)N[C@H](C(=O)O)c4cc(O)cc(O)c4-c4cc3ccc4O)[C@H](O)c3ccc(c(Cl)c3)Oc3cc2cc(c3O[C@@H]2O[C@H](CO)[C@@H](O)[C@H](O)[C@H]2O[C@H]2C[C@](C)(N)[C@H](O)[C@H](C)O2)Oc2ccc(cc2Cl)[C@H]1O [vancomycin, reference compound] | – | – | – | – | – | – | – | – | – | – | MIC ([6]; Bacillus subtilis, ATCC6051): 1 mg/L (≈ 0.69 µM)
4 | ent-Arg10-teixobactin | – | – | – | – | – | – | 4 | 2 | 1 | 2 | activity relative to Arg10-teixobactin ([2]; gram-positive bacteria, MIC): comparable activity
5 | seco-Arg10-teixobactin | – | > 32 | – | – | – | – | >32 | >32 | >32 | >32 | –
6 | teixobactin | – | – | – | – | – | – | – | – | – | – | MIC (E. coli): 25 mg/L; MIC (various Streptococcus): 0.02 to 0.15 mg/L
